Experimental data published in patent publication US20240197643A1, “ORAL DELIVERY OF NANOPARTICLES FOR KIDNEY DISEASE” (UNIVERSITY OF SOUTHERN CALIFORNIA, priority 2020, published 2024).
In brackets after ≈: the same amount, converted by molar mass. Where two headings read alike, the source gives them in different places.

Columns and labels:
[1] = Histology and intestinal localization after oral gavage; assay type: in vivo, C57BL/6 J mice; settings: 24 h after oral gavage
Description: Following ex vivo imaging, the brain, heart, lungs, liver, kidneys, spleen, intestines, and bladder were immediately frozen and embedded in OCT (Tissue Tek, Sakura Finetek, Torrance, CA, USA). 10 μm sections were obtained (CM3050 S Cryostat, Leica, Nussloch, Germany) and placed on Superfrost Plus slides (Fisherbrand, Waltham, MA, USA). Tissue sections were stained with hematoxylin & eosin (H&E) and imaged (Leica DMi8, Leica, Wetzlar, Germany, N=3). For staining of intestinal mucin, tissue sample were processed with an alcian blue 1%, pH 2.5 stain kit (Newcomer Supply, Middleton, WI, USA). Briefly, tissue sections on slides were washed in acetic acid for 3 min, incubated in alcian blue for 30 min at 4° C. in a humidified chamber, and counterstained with Nuclear Fast Red (Vector Laboratories, Burlingame, CA, USA). Samples were mounted using VectaMount™ (Vector Laboratories, Burlingame, CA, USA).

Caco-2 cells = experiment: Cellular uptake and transport of CS-NP with pathway inhibitors; assay type: in vitro ADME, Human; settings: same conditions as CS-NP R
Method: To assess the cellular uptake pathways of chitosan nanoparticles, Caco-2 cells were pretreated with medium containing colchicine (transcytosis inhibitor, 10 μM, for 60 min) or wortmannin (macropinocytosis inhibitor, 0.06 mM, for 3 h) before 100 μL of 100 μM rhodamine-loaded chitosan nanoparticles (CS-NP R) was administered in the apical chamber. The amount of rhodamine fluorescence was measured in the basolateral chamber over the course of 4 h.

[2] = Ex vivo imaging of orally administered CS-NP; assay type: in vivo, C57BL/6 J mice; settings: oral gavage 10 mg/kg rhodamine
Method: To assess the biodistribution of CS-NP semi-quantitatively, 6-7 week old male and female C57BL/6 J mice (Jackson Laboratories, Bar Harbor, ME, USA) were orally gavaged with 10 mg/kg of rhodamine loaded in 200 μL of 500 μM CS-NP R, 10 mg/kg of free R, or PBS control. Mice were euthanized after 3, 24, or 48 h […] and organs (e.g., brain, heart, lungs, liver, kidneys, spleen, intestines, and bladder) were excised and imaged ex vivo on an AMI HTX in vivo imaging system (Spectral Instruments Imaging, Tucson, AZ, USA). The fluorescence signal was quantified via Aura software (Spectral Instruments Imaging, Tucson, AZ, USA, N ≥4), and the background was subtracted from the PBS treated group. The mean radiance (photons/s/cm2/sr) for each organ was quantified as a region of interest, and % of total organ fluorescence was obtained by dividing each organ by the sum of all the organ regions. Urine and blood samples were collected following organ harvest and stored at −20° C. until further analysis. All animal procedures followed NIH guidelines for the care and use of laboratory animals and were approved by the University of Southern California's Institutional Animal Care and Use Committee.

Caco-2 cell monolayers = experiment: Transepithelial resistance (TER) surveillance; assay type: cell-based, Human; settings: up to 3 days after administration
Method: For transport and monolayer resistance experiments, Caco-2 cell monolayers were seeded onto Transwell inserts (Corning, NY, USA; diameter 6.5 mm, growth area 0.33 cm^2, pore size 0.4 μm), at an initial density of 3×10^5 cell/cm2 and maintained for 21 days in complete medium to form a confluent monolayer. The change of TER, representing the tightness of the cell monolayers, was measured by an EVOM2 Epithelial Voltohmmeter (World Precision Instruments, USA). Monolayers reaching steady-state values in the range of 300-400 Ω-cm^2 were used for studies.
Additionally, the effect of paracellular transport through tight junctions was monitored via TER of Caco-2 cells seeded on Transwell inserts. TER measurements were performed daily for three days prior to treatment with CS-NP R, free Rhodamine (free R), or PBS control to establish baseline measurements. TER was monitored every 6 h, then again on day 2 and 3 post-administration.

[3] = Serum fluorescence and absolute bioavailability after oral gavage; assay type: in vivo, C57BL/6 J mice; settings: oral gavage 10 mg/kg rhodamine, relative to IV
Method: Blood draws were performed either retro-orbitally or via tail vein at 30 min, 3, 6, 12, 24, 36, and 48 h post-administration. Fluorescence was measured in serum and quantified using a rhodamine calibration curve developed in mouse serum.

[4] = cited from earlier work
[5] = test system: cortical collecting duct (CCD); settings: identified in the literature; cited from earlier work
[6] = human, in vivo; cited from earlier work
megalin (mouse) = megalin (mouse) (UniProt A2ARV4); experiment: confocal immunohistochemistry of mouse kidney sections 24 h after i.v. injection; colocalization of Cy7 micelle signal with anti-megalin Alexa Fluor 488 signal (ImageJ coloc2)
[7] = test system: epithelial sodium channel (ENaC); experiment: ENaC current measurement in mpkCCDc14 monolayers; assay type: cell-based, Mouse; settings: after 48 h, mpkCCDc14 cells, 300 μM met
Method: To validate the therapeutic efficacy of met on the reduction of ENAC current, TER and potential difference (PD) measurements were made on mpkCCDc14 cells seeded on Transwell filters as described above. ENaC-dependent equivalent short-circuit currents (leq) was estimated by Ohm's law, dividing the measured PD by the TER value and the area of one Transwell membrane (0.33 cm2). mpkCCDc14 cell cultures were treated with 100 μL CS-NP met (300 μM met), CS-NP, or PBS at pH 7.4.

AMPK = experiment: Transwell intestinal cell model, pAMPK/AMPK ELISA of basolateral mpkCCDc14; assay type: cell-based; settings: 300 μM, up to 48 h, across Caco2 monolayer on transwell insert
Description: FIG. 17A provides a transwell schematic of mpkCCDc14 cell monolayers, with a Caco2 cell monolayer seeded on the transwell insert. […] Chitosan Disrupts Intestinal Tight Junctions.

[8] = Kidney health in PKD mice (i-Stat Chem-8+); assay type: in vivo, Pkd1fl/fl; Pax8 rtTA; Tet-O-Cre mice; settings: day of harvest
Method: Serum components, electrolytes, and kidney health markers including sodium (Na), potassium (K), chloride (Cl), ionized calcium (iCa), total carbon dioxide (tCO2), glucose (Glu), blood urea nitrogen (BUN)/Urea, creatinine (Crea), hematocrit (Hct), hemoglobin (Hb), and anion gap (AnGap) were assessed in diseased Pkd1fl/fl; Pax8 rtTA; Tet-OCre mice. 90 μL of blood taken from the submandibular vein on the day of harvest was analyzed using Chem-8+ cartridges for the i-Stat Handheld Blood Analyzer (Abbott, Chicago, IL, USA).

[9] = human, in vivo, cited from earlier work
Solubility in MQ = assay type: physicochemical; settings: MQ (water)
[10] = Encapsulation study of everolimus or rapamycin in micelles; assay type: physicochemical
Method: Micelles were assembled by dissolving DSPE-PEG(2000)-methoxy in methanol at 100 μM with either everolimus or rapamycin at different lipid:drug molar ratios (2:1, 5:1, 10:1, 20:1), mixing the components, and evaporating the organic solvent under nitrogen. The resulting film was dried under vacuum over night, and then hydrated at 80° C. for 30 min in water and allowed to cool to room temperature overnight before DLS and TEM analysis. DLS measurements were determined at 90° and 637 nm using a Malvern Zetasizer. Free drug was separated by syringe filtering micelles using PTFE syringe filter, pore size 0.1 μm. To calculate encapsulation efficiency and drug loading, micelles were disrupted using DMSO and encapsulated drug was quantified by reading absorbance at 278 nm in a UV Greiner 96-well plate.

[11] = DSPE-PEG(2000)-methoxy:drug molar ratio 2:1

Chain of megalin (mouse) (A2ARV4 26-4660): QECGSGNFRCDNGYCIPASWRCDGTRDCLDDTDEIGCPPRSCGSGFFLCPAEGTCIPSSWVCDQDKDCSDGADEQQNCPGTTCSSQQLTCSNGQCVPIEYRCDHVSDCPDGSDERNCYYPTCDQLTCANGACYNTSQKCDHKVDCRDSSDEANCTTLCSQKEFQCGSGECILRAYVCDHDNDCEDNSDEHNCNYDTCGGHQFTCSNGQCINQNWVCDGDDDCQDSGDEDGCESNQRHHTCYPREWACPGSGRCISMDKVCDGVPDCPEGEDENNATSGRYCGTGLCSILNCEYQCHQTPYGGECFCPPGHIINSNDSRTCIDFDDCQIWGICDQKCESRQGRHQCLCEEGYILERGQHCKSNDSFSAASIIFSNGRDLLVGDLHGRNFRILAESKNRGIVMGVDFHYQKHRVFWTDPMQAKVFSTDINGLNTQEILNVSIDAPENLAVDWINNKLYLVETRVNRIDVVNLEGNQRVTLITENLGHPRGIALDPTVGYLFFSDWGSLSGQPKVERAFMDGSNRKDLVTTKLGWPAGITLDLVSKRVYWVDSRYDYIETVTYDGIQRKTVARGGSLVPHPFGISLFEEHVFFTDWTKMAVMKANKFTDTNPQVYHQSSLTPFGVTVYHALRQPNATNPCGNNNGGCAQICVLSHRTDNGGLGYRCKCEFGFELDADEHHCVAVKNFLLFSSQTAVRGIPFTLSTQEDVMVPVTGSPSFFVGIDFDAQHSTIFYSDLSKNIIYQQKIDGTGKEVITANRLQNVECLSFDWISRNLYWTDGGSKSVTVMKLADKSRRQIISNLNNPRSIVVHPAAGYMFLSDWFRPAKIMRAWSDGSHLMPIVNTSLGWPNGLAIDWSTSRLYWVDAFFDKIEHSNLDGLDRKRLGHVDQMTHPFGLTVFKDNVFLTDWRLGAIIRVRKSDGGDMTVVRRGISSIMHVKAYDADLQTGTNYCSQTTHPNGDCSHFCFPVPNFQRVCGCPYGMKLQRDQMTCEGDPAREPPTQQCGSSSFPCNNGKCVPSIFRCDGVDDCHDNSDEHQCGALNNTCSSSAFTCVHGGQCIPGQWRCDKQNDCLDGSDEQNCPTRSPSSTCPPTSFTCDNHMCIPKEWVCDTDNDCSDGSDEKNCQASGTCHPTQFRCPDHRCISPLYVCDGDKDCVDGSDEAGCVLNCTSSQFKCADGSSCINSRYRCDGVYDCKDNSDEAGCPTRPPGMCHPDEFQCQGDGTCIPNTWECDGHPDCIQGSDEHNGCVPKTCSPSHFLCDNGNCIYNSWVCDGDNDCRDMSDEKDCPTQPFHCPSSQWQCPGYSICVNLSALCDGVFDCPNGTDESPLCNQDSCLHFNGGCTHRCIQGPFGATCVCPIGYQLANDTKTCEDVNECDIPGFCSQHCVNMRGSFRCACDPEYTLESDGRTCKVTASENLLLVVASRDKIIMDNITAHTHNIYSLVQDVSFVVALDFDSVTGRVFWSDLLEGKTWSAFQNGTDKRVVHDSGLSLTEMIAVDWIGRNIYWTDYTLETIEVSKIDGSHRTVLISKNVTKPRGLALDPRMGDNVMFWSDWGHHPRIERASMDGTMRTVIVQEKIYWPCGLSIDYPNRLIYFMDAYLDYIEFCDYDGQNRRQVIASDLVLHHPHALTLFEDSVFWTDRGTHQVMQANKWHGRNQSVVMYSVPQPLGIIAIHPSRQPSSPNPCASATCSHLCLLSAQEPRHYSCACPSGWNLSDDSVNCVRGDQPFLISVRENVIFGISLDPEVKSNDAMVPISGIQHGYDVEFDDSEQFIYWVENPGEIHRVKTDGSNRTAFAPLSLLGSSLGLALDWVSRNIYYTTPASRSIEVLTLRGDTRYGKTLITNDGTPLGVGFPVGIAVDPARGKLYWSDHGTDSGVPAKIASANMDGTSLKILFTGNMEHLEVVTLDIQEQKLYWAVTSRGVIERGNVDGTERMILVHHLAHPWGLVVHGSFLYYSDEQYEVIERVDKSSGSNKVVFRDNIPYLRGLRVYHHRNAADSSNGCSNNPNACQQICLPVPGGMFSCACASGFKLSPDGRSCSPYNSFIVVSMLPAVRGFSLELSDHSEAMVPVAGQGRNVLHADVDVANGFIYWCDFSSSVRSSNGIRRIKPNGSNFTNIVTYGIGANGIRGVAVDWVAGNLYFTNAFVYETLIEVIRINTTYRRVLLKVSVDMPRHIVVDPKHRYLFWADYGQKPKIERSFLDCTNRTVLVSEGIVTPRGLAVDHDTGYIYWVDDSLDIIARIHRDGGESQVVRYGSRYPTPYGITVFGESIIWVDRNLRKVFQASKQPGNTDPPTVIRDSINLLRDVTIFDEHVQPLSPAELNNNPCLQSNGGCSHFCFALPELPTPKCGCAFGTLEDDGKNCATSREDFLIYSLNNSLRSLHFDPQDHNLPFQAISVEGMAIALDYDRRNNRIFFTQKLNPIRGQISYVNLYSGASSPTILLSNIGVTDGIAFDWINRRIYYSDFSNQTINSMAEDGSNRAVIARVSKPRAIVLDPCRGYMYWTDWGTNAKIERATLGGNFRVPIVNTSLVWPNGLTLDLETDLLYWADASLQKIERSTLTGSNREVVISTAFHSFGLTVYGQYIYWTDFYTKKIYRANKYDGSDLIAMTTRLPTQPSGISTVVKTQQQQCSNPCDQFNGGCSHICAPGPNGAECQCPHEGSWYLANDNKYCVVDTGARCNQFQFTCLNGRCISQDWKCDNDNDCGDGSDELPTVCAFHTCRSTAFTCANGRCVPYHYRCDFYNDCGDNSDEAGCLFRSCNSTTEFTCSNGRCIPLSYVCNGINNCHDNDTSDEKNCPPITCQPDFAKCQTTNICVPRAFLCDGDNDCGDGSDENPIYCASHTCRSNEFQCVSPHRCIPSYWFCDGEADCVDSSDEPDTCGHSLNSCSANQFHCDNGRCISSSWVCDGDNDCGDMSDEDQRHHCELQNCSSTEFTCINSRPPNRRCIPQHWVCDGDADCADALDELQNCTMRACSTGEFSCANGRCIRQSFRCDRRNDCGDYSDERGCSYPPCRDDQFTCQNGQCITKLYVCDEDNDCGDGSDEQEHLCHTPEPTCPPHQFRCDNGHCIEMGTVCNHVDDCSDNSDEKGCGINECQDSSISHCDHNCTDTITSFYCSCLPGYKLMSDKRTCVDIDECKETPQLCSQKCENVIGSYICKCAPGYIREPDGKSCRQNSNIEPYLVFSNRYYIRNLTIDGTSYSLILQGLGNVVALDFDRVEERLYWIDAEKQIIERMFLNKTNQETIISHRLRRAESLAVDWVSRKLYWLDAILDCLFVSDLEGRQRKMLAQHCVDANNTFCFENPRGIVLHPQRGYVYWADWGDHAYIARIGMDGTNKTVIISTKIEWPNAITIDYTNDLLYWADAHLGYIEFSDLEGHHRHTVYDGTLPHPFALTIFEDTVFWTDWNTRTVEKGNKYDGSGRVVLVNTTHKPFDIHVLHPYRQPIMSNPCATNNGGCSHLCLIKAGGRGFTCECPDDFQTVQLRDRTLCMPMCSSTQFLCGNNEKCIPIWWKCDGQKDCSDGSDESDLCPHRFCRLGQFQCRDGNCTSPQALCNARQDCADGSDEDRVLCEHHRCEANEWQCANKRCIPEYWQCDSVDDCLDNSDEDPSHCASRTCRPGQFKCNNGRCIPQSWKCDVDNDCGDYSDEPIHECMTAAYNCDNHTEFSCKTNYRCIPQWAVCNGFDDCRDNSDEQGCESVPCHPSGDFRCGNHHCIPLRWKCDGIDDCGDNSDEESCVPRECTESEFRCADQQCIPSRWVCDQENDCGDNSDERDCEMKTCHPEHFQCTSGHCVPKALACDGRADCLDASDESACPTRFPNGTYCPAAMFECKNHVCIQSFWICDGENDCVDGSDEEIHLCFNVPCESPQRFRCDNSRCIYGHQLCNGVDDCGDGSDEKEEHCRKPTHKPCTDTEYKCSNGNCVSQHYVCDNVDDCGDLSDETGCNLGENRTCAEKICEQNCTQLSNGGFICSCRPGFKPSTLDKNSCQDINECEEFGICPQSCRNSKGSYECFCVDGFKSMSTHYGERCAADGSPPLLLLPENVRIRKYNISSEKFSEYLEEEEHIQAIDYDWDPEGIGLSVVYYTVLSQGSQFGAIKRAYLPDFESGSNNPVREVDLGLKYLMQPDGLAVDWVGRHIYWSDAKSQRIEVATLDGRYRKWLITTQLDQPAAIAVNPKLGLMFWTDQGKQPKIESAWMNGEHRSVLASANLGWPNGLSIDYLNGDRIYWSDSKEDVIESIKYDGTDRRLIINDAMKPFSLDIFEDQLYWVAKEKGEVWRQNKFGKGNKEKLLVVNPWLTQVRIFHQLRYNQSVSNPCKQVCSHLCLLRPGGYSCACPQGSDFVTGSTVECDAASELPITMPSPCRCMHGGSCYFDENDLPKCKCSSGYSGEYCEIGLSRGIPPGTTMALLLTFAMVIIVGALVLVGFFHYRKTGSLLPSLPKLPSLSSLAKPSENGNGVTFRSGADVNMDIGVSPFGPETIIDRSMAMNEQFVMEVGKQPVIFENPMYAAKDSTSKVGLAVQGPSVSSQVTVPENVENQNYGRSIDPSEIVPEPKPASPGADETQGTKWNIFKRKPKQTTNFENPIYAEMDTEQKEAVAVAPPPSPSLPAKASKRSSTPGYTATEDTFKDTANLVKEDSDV

CCN(CC)c1ccc2c(-c3ccccc3C(=O)O)c3ccc(=[N+](CC)CC)cc-3oc2c1.[Cl-] [free R, Rhodamine B]
intestinal localization [1]: localized to the duodenum and ileum | reduction in transport between the colchicine and wortmannin conditions (Caco-2 cells): No statistically significant reduction | % of total organ fluorescence accumulation in the intestines ([2]; 3 h): 45.8±14.0% | % of total organ fluorescence accumulation in the intestines ([2]; 24 h): 37.4±15.5% | % of total organ fluorescence accumulation in the intestines ([2]; 48 h): 38.5±15.1% | changes in TER (Caco-2 cell monolayers): No changes in TER | absolute bioavailability [3]: 47.9%

MGSHIEPGG-C: cortical collecting duct (CCD)-targeting peptide, SEQ ID NO: 52 (MGSHIEPGGC; listed as Homo sapiens)
Water solubility [4]: Good | Targeting location [5]: PCT and CCD

Cc1ccccc1C(=O)Nc1ccc(C(=O)N2CCCC(O)c3cc(Cl)ccc32)c(C)c1 (stereo not drawn) [tolvaptan]
clinical trial dropout rate [6]: 23%

KMGGTNHPE-C: cortical collecting duct (CCD)-targeting peptide, SEQ ID NO: 53 (KMGGTNHPEC; listed as Homo sapiens)
Water solubility [4]: Good | Targeting location [5]: PCT and CCD

ELRGDRAKL-C: alternative CCD-targeting peptide, SEQ ID NO: 56 (ELRGDRAKLC; listed as Homo sapiens)
Water solubility [4]: Good | Targeting location [5]: CCD

45% PEG2000-(KKEEE)3K micelle (kidney-targeting peptide (KKEEE)3K with added N-terminal cysteine, conjugated to DSPE-PEG(2000)-maleimide)
Pearson's R value (colocalization) (megalin (mouse)): 0.48

CN(C)C(=N)N=C(N)N [free met, metformin]
ENaC current [7]: 79.2 μA/cm2 | phosphorylated AMPK to total AMPK compared to CS-NP (AMPK): significant increase | serum components, electrolytes, and kidney health markers [8]: no significant difference between groups | patients with gastrointestinal (GI) discomfort [9]: 25% | patients with complete intolerance for the drug ([9]; listed as met): approximately 5% | patients with complete intolerance for the drug ([9]; listed as metformin): 5%

45% PEG2000-(EEKKK)3E micelle (peptide (EEKKK)3E with added N-terminal cysteine, conjugated to DSPE-PEG(2000)-maleimide)
Pearson's R value (colocalization) (megalin (mouse)): 0.53

CKDSPKSSKSIRFIPVST (listed as Homo sapiens)
Water solubility [4]: Good | Targeting location [5]: Type A

CO[C@H]1C[C@@H]2CC[C@@H](C)[C@@](O)(O2)C(=O)C(=O)N2CCCC[C@H]2C(=O)O[C@H]([C@H](C)C[C@@H]2CC[C@@H](O)[C@H](OC)C2)CC(=O)[C@H](C)/C=C(\C)[C@@H](O)[C@@H](OC)C(=O)[C@H](C)C[C@H](C)/C=C/C=C/C=C/1C [Rapamycin]
solubility (Solubility in MQ): 5 to 20 µg/mL (≈ 5.47 to 21.9 µM)

CO[C@H]1C[C@@H]2CC[C@@H](C)[C@@](O)(O2)C(=O)C(=O)N2CCCC[C@H]2C(=O)O[C@H]([C@H](C)C[C@@H]2CC[C@@H](OCCO)[C@H](OC)C2)CC(=O)[C@H](C)/C=C(\C)[C@@H](O)[C@@H](OC)C(=O)[C@H](C)C[C@H](C)/C=C/C=C/C=C/1C [Everolimus]
Encapsulation efficiency (%) [10, 11]: 87.1 ± 2.0% | Loading capacity (wt/wt %) [10, 11]: 13.0 ± 0.3 wt/wt % | Moles drug per mole micelle [10, 11]: 0.1 ± 0.01 | Size (nm) ([10]; drug-loaded micelles, lipid:drug 2:1): 21.0 ± 1.3 nm | solubility (Solubility in MQ): < 100 µg/mL
